Data on one molecule can be found in patent US20240109937A1, “BINDING PEPTIDES AND USES THEREOF” (The Johns Hopkins University, priority 2021, published 2024).

The target in test [1] is T1, CAPN1 (Mus musculus, UniProt O35350).
T1 construct: endogenous in cells; host or cells: HL-1 cardiomyocytes
T1 sequence (O35350 1-713): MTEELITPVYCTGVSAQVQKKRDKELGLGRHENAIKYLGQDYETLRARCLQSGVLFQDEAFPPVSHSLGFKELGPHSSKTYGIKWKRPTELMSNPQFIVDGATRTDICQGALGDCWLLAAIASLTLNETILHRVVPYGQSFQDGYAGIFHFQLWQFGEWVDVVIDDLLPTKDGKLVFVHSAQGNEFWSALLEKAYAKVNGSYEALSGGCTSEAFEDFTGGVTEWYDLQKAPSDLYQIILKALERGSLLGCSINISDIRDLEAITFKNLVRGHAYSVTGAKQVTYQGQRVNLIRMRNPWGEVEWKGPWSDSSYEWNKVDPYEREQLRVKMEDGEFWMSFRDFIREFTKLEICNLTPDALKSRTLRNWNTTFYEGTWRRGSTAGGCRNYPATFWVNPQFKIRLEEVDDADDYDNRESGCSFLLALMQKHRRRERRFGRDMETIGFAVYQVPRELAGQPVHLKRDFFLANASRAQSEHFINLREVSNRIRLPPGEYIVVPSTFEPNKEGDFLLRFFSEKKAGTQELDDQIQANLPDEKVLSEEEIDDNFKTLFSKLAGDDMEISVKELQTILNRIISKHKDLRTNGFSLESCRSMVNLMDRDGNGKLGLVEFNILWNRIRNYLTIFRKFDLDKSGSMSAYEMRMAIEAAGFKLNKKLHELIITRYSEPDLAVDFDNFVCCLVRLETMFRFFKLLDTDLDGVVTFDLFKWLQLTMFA
T1 sequence (O88456 1-268 partner): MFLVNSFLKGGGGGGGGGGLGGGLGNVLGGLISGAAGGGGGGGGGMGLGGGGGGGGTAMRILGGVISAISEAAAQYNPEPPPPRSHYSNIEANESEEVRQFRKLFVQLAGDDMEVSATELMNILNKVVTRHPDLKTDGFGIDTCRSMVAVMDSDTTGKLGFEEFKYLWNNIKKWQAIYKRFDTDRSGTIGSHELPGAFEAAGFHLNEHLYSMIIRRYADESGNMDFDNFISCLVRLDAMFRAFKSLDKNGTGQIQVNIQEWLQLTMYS
The test can be described thus: Calpain activity assay (Suc-LLVY-AMC cleavage) in HL-1 cells under Ca2+ overload. It is filed as cell-based. As to conditions: Calcimycin 1 μM in HBS KV medium, dose-dependent response. How it is done:
Calcium (Ca^2+) Overload Protocol: Rapid and sustained intracellular Ca^2+ overload was obtained by adding the Ca^2+-ionophore, calcimycin (1 μM), to HL-1 cells incubated for 10 min in HBS KV medium (1.26 mM CaCl2, 0.81 mM MgSO4, 0.44 mM KH2PO4, 142 mM KCl, 0.27 mM K2HPO4, 5.55 mM D-glucose, 1 mM Na3VO4, 20 mM Hepes pH 7.4). To monitor intracellular Ca^2+ variations, HL-1 cells were loaded with 5 μM Fluo-4 FF AM (Molecular Probes) in HBS Na (Sigma) for 30 min before the media was replaced with HBS KV. […] Calpain (CAPN) Activity Assay: […] HL-1 cells were grown in 24-well plates and incubated for 30 min in HBS Na (Sigma) with 25 μM Suc-LLVY-AMC (SEQ ID NO: 81) and 0.01% pluronic F127 (Molecular Probes) before treatment protocols. […] CAPN activity was inhibited via the addition of either calpeptin (Tocris) or PD150606 (Calbiochem) in the incubation medium.

In the next test the test system is cleaved (75 kDa) CAPN1. Put plainly: Immunoblot of active CAPN1 in ISO/Ca2+-treated ES-CMs (chronic CAPN1 inhibition). It is filed as cell-based, mouse. The note with it: Dsg2^mut/mut ES-CMs, 7 days 50 μM ISO/1 μM Ca2+, calpeptin pretreatment. As for the experimental part: (§1) Mouse embryonic stem cells (ESs) were maintained and differentiated, and the absence of mycoplasma contamination was confirmed prior to experimental studies. Briefly, mouse ESs from both WT and Dsg2^mut/mut mice were derived from E3.5 embryos and maintained on gelatin-coated dishes in maintenance medium (Glasgow minimum essential medium supplemented with 10% fetal bovine serum and 3 μM Chir99021 and 1 μM PD98059 or 1000 U/ml ESGRO; Millipore), Glutamax, sodium pyruvate, and MEM non-essential amino acids (Thermo Fisher Scientific). For cardiomyocyte (CM) differentiation, ESs were plated in IMDM/Ham's F12 (Cellgro, at 3:1) supplemented with N2, B27, penicillin/streptomycin, 2 mM GlutaMAX, 0.05% BSA, 5 ng/ml L-ascorbic acid (Sigma-Aldrich), and α-monothioglycerol (MTG; Sigma-Aldrich) at a final density of 100,000 cells/ml to allow spheroid formation. After 48 hours, embryoid bodies were collected and transferred to ultra-low attachment plastic surface and induced for 40 hours with Activin A and Bmp4 (R&D Systems). Cells were then dissociated and plated as monolayers for 48 hours in the presence of 10 μM XAV to allow cardiomyocyte differentiation. The resulting ES-CMs were cultured 45 days before experimental procedures were performed.

The target of test [2] is T1, CAPN1. The test can be described thus: Western blot of CAPN1 in purified mitochondria from HL-1 cells under Ca2+ overload. It is filed as cell-based. The note with it: Ca2+ overload (HBS KVC), calpeptin 50 μM, PD150606 10 μM. As for the experimental part:
Calcium (Ca^2+) Overload Protocol: Rapid and sustained intracellular Ca^2+ overload was obtained by adding the Ca^2+-ionophore, calcimycin (1 μM), to HL-1 cells incubated for 10 min in HBS KV medium (1.26 mM CaCl2, 0.81 mM MgSO4, 0.44 mM KH2PO4, 142 mM KCl, 0.27 mM K2HPO4, 5.55 mM D-glucose, 1 mM Na3VO4, 20 mM Hepes pH 7.4). To monitor intracellular Ca^2+ variations, HL-1 cells were loaded with 5 μM Fluo-4 FF AM (Molecular Probes) in HBS Na (Sigma) for 30 min before the media was replaced with HBS KV. The fluorescence was recorded using a fluorimeter plate reader (Fluoroskan Ascent Labsystem) at wavelength settings of 485/530 nm for excitation/emission, respectively.
Mitochondria Isolation Protocol: Mitochondria were isolated from HL-1 cells in percoll density gradient. Briefly, 30×10^6 adherent cells were harvested with Trypsin/EDTA, centrifuged at 500×g for 10 min, washed in buffer A (100 mM sucrose, 1 mM EGTA, 20 mM MOPS, pH 7.4, and 1 mg/mL BSA) before cell disruption with a Dounce homogenizer. The suspension was centrifuged twice at 500× g for 5 min and the resulting supernatant at 10,000×g for 10 min at 4° C. The pellet was re-suspended in buffer B (300 mM sucrose, 1 mM EGTA, 20 mM MOPS pH 7.4, 1 mg/mL BSA), and the homogenate was layered on a two-phase (25% and 40%) percoll density gradient. […]

Test [3] concerns truncated AIF (tAIF, 57 kDa). Put plainly: Immunoblot of truncated AIF in ISO/Ca2+-treated ES-CMs (chronic CAPN1 inhibition). It is filed as cell-based, mouse. The note with it: Dsg2^mut/mut ES-CMs, 7 days 50 μM ISO/1 μM Ca2+, calpeptin pretreatment. How it is done:
as §1
(In general: A western blot detects proteins with antibodies after separation by electrophoresis.)

On to `CCCC[C@@H](C=O)NC(=O)[C@H](CC(C)C)NC(=O)OCc1ccccc1` [calpeptin], for which the “reduction in Ca2+ overload-induced CAPN1 substrate hydrolysis” value at CAPN1 [1] was around 75%. For the same molecule, in the test on cleaved (75 kDa) CAPN1, the “levels of cleaved (75 kDa) CAPN1” value is listed as “significantly lowered”. Also, at CAPN1 [2], the “mitochondrial CAPN1 translocation” value was “failed to prevent”. Also, in test [3], the “levels of tAIF (57 kDa)” value is “significantly lowered”.
